Assay results reported in patent publication US20260176289A1, “SMALL MOLECULE INHIBITORS OF KRAS PROTEINS” (Merck Sharp & Dohme LLC, priority 2022, published 2026).
Like-named read-outs stand apart in the source and are kept apart here.

Key:
[1] = tested on: MKN-1 cells; test: Cellular phospho-ERK assay, MKN-1 cells (amplified wild-type KRAS); format: cell-based; details: Homo sapiens, amplified wild-type KRAS, 2 hours, read-out: MKN1 pERK IC50
In short: (§1)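 Readout: p-ERK/total ERK ratio measured by Alpha SureFire Ultra multiplex in lysates after 2 h compound exposure (37 °C, 5% CO2). Dosing ran 10 points, 1:3 dilutions, highest final concentration 30 μM. IC50 values derived by four-parameter logistic regression.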

[2] = molecular target: KRAS-WT (Homo sapiens, UniProt P01116); test: SOS-catalyzed nucleotide exchange assay (Procedure A, TR-FRET), KRAS-WT; format: biochemical; details: nucleotide exchange, read-out: KRAS WT GNE IC50
Chain of KRAS-WT (P01116 with tags, fused parts or gaps isoform P01116-2): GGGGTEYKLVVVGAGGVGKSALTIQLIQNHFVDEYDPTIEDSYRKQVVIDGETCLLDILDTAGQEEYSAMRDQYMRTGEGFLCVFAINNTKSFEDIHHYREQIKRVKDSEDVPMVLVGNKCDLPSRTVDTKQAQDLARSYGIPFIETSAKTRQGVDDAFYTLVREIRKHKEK
In short: (§2)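 Signal ratio (520/495 nm, excitation 340 nm) reports Bodipy-GDP retention on biotinylated RAS after SOS-catalyzed exchange with 3 mM GTP. SOS was 40 nM, except 160 nM for G12V. Room-temperature exchange lasted 60 min (90 min for G12V), following a 60 min compound preincubation.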

[3] = molecular target: KRAS-G12D (Homo sapiens, UniProt P01116, G12D); test: SOS-catalyzed nucleotide exchange assay (Procedure A, TR-FRET), KRAS-G12D; format: biochemical; details: nucleotide exchange, read-out: KRAS G12D GNE IC50
Chain of KRAS-G12D (P01116 with tags, fused parts or gaps isoform P01116-2 G12D): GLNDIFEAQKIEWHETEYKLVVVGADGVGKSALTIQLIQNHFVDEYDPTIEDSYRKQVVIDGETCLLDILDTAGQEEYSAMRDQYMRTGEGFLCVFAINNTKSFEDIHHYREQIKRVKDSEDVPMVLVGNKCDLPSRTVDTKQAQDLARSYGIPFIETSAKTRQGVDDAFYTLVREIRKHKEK
In short: as §2

[4] = tested on: AsPC-1 cells; test: Cellular phospho-ERK assay, AsPC-1 cells (homozygous KRAS-G12D); format: cell-based; details: Homo sapiens, ASPC1, 2 h, KRAS-G12D, 2 hours, read-out: AsPC1 pERK IC50
In short: as §1

[5] = molecular target: KRAS-G13D (Homo sapiens, UniProt P01116, G13D); test: SOS-catalyzed nucleotide exchange assay (Procedure A, TR-FRET), KRAS-G13D; format: biochemical; details: nucleotide exchange, Procedure A; read-out: KRAS G13D GNE IC50
Chain of KRAS-G13D (P01116 with tags, fused parts or gaps isoform P01116-2 G13D): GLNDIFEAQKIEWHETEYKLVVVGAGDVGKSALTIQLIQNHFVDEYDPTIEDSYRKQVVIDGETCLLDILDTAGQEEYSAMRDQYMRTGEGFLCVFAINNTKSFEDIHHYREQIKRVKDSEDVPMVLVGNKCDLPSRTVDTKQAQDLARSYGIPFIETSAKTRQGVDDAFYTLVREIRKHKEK

[6] = tested on: PANC08.13 cells; test: Cellular phospho-ERK assay, PANC08.13 cells (homozygous KRAS-G12D); format: cell-based; details: Homo sapiens, read-out: PANC-08.13 pERK IC50
Method: Procedure for Cellular Phospho-ERK Assay in KRAS Wild Type and Mutant (G12D, G12V) Cell Lines
MKN-1 cells (JCRB JCRB0252) containing amplified wild-type KRAS, were cultured in growth medium that contains RPMI 1640-GlutaMAX™-I (ThermoFisher Scientific 61870) containing 10% heat inactivated fetal bovine serum (ThermoFisher Scientific 10091148), 1 mM sodium pyruvate and 10 mM HEPES. PANC08.13 cells (ATCC® CRL-2551™), containing homozygous KRAS-G12D activating mutation, were cultured in growth medium made of RPMI1640-GlutaMAX™-I (ThermoFisher Scientific 61870) containing 15% heat inactivated fetal bovine serum (ThermoFisher Scientific 10091148)). AsPC-1 cells (ATCC® CRL-1682™), containing homozygous KRAS-G12D activating mutation, were cultured in T150 flask in growth medium (RPMI medium 1640-GlutaMAX™-I (ThermoFisher Scientific 61870) containing 10% fetal bovine serum (ThermoFisher Scientific 10091148)). SW620 cells (ATCC® […]), containing homozygous KRAS-G12V activating mutation, were cultured in growth medium that contains RPMI 1640-GlutaMAX™-I (ThermoFisher Scientific 61870) containing 10% heat inactivated fetal bovine serum (ThermoFisher Scientific 10091148).
Cells for the assay were harvested in growth medium after TrypLE (ThermoFisher scientific 12604021) digestion and were seeded in a 384-well collagen coated cell culture plate (Corning 356702) at a density of 10,000-15,000 cells/20 μL/well, and incubated at 37° C., 5% CO2 overnight. The compound (with 10 mM stock concentration) dose-response titrations were prepared [30 μM final ERK detection assay concentration and 1:3 dilutions, 10-point dose response] and appropriate amounts (270 nL) of test compounds were dispensed in a 384-well intermediate plate using an Echo 550 liquid handler. 30 μL/well of RPMI medium 1640-GlutaMAX™—I was added to the intermediate plate and the contents of the intermediate plate (10 μL/well) were then transferred to the 384-well collagen coated cell culture plate, which was incubated at 37° C., 5% CO2 for 2 hours. After removal of medium from the collagen coated cell culture plate, cells were lysed in lysis buffer from Alpha SureFire® Ultra™ Multiplex p-ERK and total ERK assay kit (PerkinElmer MPSU-PTERK) containing Halt™ Protease and Phosphatase inhibitor cocktail (ThermoFisher Scientific 78446) at room temperature with constant shaking at 300 rpm for 30 minutes. The cell lysates were then transferred to an OptiPlate-384 plate (PerkinElmer 6005620), and the phosphorylation of ERK (p-ERK) and total ERK levels were detected by Alpha SureFire® Ultra™ Multiplex p-EEK kit and total ERK assay kit (PerkinElmer MPSU-PTERK) following the manufacturer's protocol. Assay plates were read on a En Vision Multimode Plate Reader (PerkinElmer), and the ratio of p-ERK vs. total ERK in each well was used as the final readout. Dose response curves were analyzed using a 4-parameter logistic model to calculate IC50 values using Spotfire software.

[7] = molecular target: KRAS-G12V (Homo sapiens, UniProt P01116, G12V); test: SOS-catalyzed nucleotide exchange assay (Procedure A, TR-FRET), KRAS-G12V; format: biochemical; details: nucleotide exchange, read-out: KRAS G12V GNE IC50
Chain of KRAS-G12V (P01116 with tags, fused parts or gaps isoform P01116-2 G12V): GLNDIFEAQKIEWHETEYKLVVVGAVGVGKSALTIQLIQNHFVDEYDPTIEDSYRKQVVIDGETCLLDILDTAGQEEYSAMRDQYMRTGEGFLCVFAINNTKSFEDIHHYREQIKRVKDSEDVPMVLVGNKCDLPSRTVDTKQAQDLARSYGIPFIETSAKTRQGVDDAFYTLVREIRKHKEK
In short: as §2

[8] = molecular target: KRAS-G12C (C51S/C80L/C118S) (Homo sapiens, UniProt P01116, C118S/C51S/C80L/G12C); test: SOS-catalyzed nucleotide exchange assay (Procedure A, TR-FRET), KRAS-G12C; format: biochemical; details: nucleotide exchange, Procedure A; read-out: KRAS G12C GNE IC50
Chain of KRAS-G12C (C51S/C80L/C118S) (P01116 with tags, fused parts or gaps isoform P01116-2 G12C/C51S/C80L/C118S): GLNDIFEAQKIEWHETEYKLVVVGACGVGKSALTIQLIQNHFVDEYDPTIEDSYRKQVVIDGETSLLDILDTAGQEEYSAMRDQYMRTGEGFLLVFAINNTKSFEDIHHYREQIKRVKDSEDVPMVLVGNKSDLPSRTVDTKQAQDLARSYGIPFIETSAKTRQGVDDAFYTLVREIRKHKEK
In short: as §2

[9] = PANC-08-13, 2 hours compound incubation

Row | SMILES | IC50 [1] | IC50 [2] | IC50 [3] | IC50 [4] | IC50 [5] | IC50 ([6]; PANC-08-13, KRAS-G12D, 2 hours) | IC50 [7] | IC50 [8] | IC50 [6, 9]
1 | Cc1cc2[nH]ncc2c(-c2nccc3c4c(N5CCC[C@@](C)(O)C5)nc(OC[C@@]56CCCN5C[C@H](F)C6)nc4n(C)c23)c1C(F)(F)F (single isomer, unassigned) [Ex-5] | 127 nM | 101 nM | 61.2 nM | 694 nM | 94.3 nM | 188 nM | 80.7 nM | 96.8 nM | 
2 | Cn1c2nc(OC[C@@]34CCCN3C[C@H](F)C4)nc(N3CCOC[C@@](C)(O)C3)c2c2ccnc(-c3c(C(F)F)c(Cl)cc4[nH]ncc34)c21 (single isomer, unassigned) [Ex-11] |  | 158 nM | 84.2 nM | 1200 nM | 105 nM | 240 nM | 125 nM | 41.1 nM | 
3 | Cc1cc2[nH]ncc2c(-c2nccc3c2sc2nc(OC[C@@]45CCCN4C[C@H](F)C5)nc(N4CCC[C@@](C)(O)C4)c23)c1C(F)(F)F [Ex-128, (3R)-1-(2-(((2R, 7aS)-2-fluorotetra-hydro-1H-pyrrol-izin-7a(5H)-yl)meth-oxy)-8-(6-methyl-5-(trifluoromethyl)-1H-indazol-4-yl)-pyrido[4′,3′:4,5]thieno[2,3-d]pyr-imidin-4-yl)-3-methylpiperidin-3-ol] | 214 nM | 246 nM | 96.9 nM | 667 nM | 204 nM | 242 nM | 143 nM | 102 nM | 
4 | Cc1cc2[nH]ncc2c(-c2nccc3c2sc2nc(OC[C@@]45CCCN4C[C@H](F)C5)nc(N4CCOCC4)c23)c1C(F)(F)F [Ex-179, 4-(2-(((2R,7aS)-2-fluorotetrahydro-1H-pyrrolizin-7a(5H)-yl)methoxy)-8-(6-methyl-5-(trifluoromethyl)-1H-indazol-4-yl)pyrido[4′,3′:4,5]thieno[2,3-d]pyrimidin-4-yl) morpholine] |  | 2760 nM | 7600 nM |  | 1320 nM |  | 1600 nM | 124 nM | 3900 nM
5 | Cc1cc2[nH]ncc2c(-c2nccc3c2sc2nc(OC[C@@]45CCCN4C[C@H](F)C5)nc(N4CCOC(CO)C4)c23)c1C(F)(F)F (stereo partly drawn) [Ex-180, (4-(2-(((2R,7aS)-2-fluoro-tetrahydro-1H-pyrrolizin-7a(5H)-yl)methoxy)-8-(6-methyl-5-(trifluorometh-yl)-1H-indazol-4-yl)pyrido [4′,3′:4,5]thieno[2,3-d]pyr-imidin-4-yl)morpholin-2-yl)methanol] |  | 725 nM | 2270 nM |  | 813 nM |  | 428 nM | 78 nM | 3930 nM
6 | Cc1cc2[nH]ncc2c(-c2nccc3c2sc2nc(OC[C@@]45CCCN4C[C@H](F)C5)nc(NC4COC4)c23)c1C(F)(F)F [Ex-184, 2-(((2R,7aS)-2-fluoro-tetrahydro-1H-pyrrolizin-7a(5H)-yl)methoxy)-8-(6-methyl-5-(trifluorometh-yl)-1H-indazol-4-yl)-N-(oxetan-3-yl)pyrido [4′,3′:4,5]thieno[2,3-d] pyrimidin-4-amine] |  | 822 nM | 591 nM |  | 668 nM |  | 194 nM | 96.7 nM | 812 nM
7 | Cc1cc2[nH]ncc2c(-c2cncc3c2sc2nc(OC[C@@]45CCCN4C[C@H](F)C5)nc(N4CCOC[C@@](C)(O)C4)c23)c1C(F)(F)F [Ex-273, (6S)-4-(2-(((2R,7aS)-2-fluorotetrahydro-1H-pyrrolizin-7a(5H)-yl)methoxy)-8-(6-methyl-5-(trifluoromethyl)-1H-indazol-4-yl)pyrido[3′,4′:4,5]thieno[2,3-d]pyrimidin-4-yl)-6-methyl-1,4-oxazepan-6-ol] |  | 1230 nM | 360 nM |  | 1100 nM | 562 nM | 574 nM | 456 nM | 
8 | C[C@@]1(O)COCCN(c2nc(OC[C@@]34CCCN3C[C@H](F)C4)nc3sc4c(-c5ccc(F)c6sc(N)c(C#N)c56)cncc4c23)C1 [Ex-274, 2-amino-7-fluoro-4-(2-(((2R,7aS)-2-fluorotetrahydro-1H-pyrrolizin-7a(5H)-yl)methoxy)-4-((S)-6-hydroxy-6-methyl-1,4-oxazepan-4-yl)pyrido[3′,4′:4,5]thieno[2,3-d]pyrimidin-8-yl)benzo[b]thiophene-3-carbonitrile] |  | 330 nM | 671 nM |  | 87.6 nM | 1010 nM | 401 nM | 121 nM | 
9 | Cc1cc2[nH]ncc2c(-c2nccc3c2oc2nc(OC[C@@]45CCCN4C[C@H](F)C5)nc(N4CCOC[C@@](C)(O)C4)c23)c1C(F)(F)F [Ex-290, (6S)-4-(2-(((2R,7aS)-2-fluorotetrahydro-1H-pyrrolizin-7a(5H)-yl)methoxy)-8-(6-methyl-5-(trifluoromethyl)-1H-indazol-4-yl)pyrido[4′,3′:4,5]furo[2,3-d]pyrimidin-4-yl)-6-methyl-1,4-oxazepan-6-ol] |  | 1400 nM | 611 nM |  | 1030 nM | 2330 nM | 365 nM | 175 nM | 
10 | Cc1cc2[nH]ncc2c(-c2nccc3c2oc2nc(OC[C@]4(CN(C)C)CC4(F)F)nc(N4CCOC[C@@](C)(O)C4)c23)c1C(F)(F)F [Ex-291, (6S)-4-(2-(((R)-1-((dimethylamino)methyl)-2.2-difluorocyclopropyl)meth-oxy)-8-(6-methyl-5-(trifluoromethyl)-1H-indazol-4-yl)pyrido[4′,3′:4,5]furo[2,3-d]pyrimidin-4-yl)-6-methyl-1,4-oxazepan-6-ol] |  | 377 nM | 153 nM |  | 210 nM | 306 nM | 207 nM | 116 nM | 
